Experimental data as given in patent US20260091015A1, “TREATING IRON DEFICIENCY WITH FERRIC CARBOXYMALTOSE” (PHARMACOSMOS HOLDING A/S, priority 2018, published 2026).

Key:
[1] = Fractional urinary phosphate excretion, spot urine, trials IDA-04/IDA-05; type: in vivo, human; settings: FCM vs IIM
Experimental: The term “fractionary urinary excretion of phosphate (FEPi)” (sometimes abbreviated FEPO4) is a measure of how much phosphate is not re-absorbed from the pre-urine in the kidneys, i.e., how much phosphate ends up in the urine as a proportion of how much phosphate the subject has in the blood. It is calculated like this: FEPi=[PO4 (Urine)*Creatinine (Serum)]/[PO4 (Serum)*Creatinine (Urine)]*100. An FEPi of 10-20% (0.1-0.2 fraction) is usually considered to be normal; an FEPi <10% (<0.1 fraction) is usually considered to be low; and an FEPi >20% (>0.2 fraction) is usually considered to be high. Phosphate in urine is measured using the same methodology as for serum.
(§1) The trial was a randomized, open-label, comparative trial. Subjects with Iron Deficiency Anaemia (IDA) were randomized 1:1 to one treatment course of one of the following treatments: • Group A: iron isomaltoside 1000 (Monofer®, Pharmacosmos, Holbok, Denmark, termed iron isomaltoside in the following), 1000 mg at baseline • Group B: ferric carboxymaltose (Ferinject®/Injectafer®, Vifor Inc, Switzerland), 750 mg at baseline and day 7, cumulative dose: 1500 mg […]

human intact FGF23 = assay: Intact FGF23 (iFGF23) over time, two-site ELISA, trials IDA-04/IDA-05; type: in vivo
Experimental: The trial was a randomized, open-label, comparative trial. Subjects with Iron Deficiency Anaemia (IDA) were randomized 1:1 to one treatment course of one of the following treatments: • Group A: iron isomaltoside 1000 (Monofer®, Pharmacosmos, Holbok, Denmark, termed iron isomaltoside in the following), 1000 mg at baseline • Group B: ferric carboxymaltose (Ferinject®/Injectafer®, Vifor Inc, Switzerland), 750 mg at baseline and day 7, cumulative dose: 1500 mg
The secondary safety endpoints were the following: • Incidence of s-phosphate below 1.0 mg/dL at any time from baseline to day 35 • Time with hypophosphatemia (i.e. time with s-phosphate <2.0 mg/dL) from baseline to day 35 • Proportion of subjects with hypophosphatemia at day 35 • Absolute [Δ] and relative [%] changes in s-phosphate from baseline to 1, 7, 8, 14, 21, and 35 • Fractional phosphate urinary excretion at 1, 7, 8, 14, 21, and 35 • Change in iFGF23, cFGF23, vitamin D (25, 1,25, 24,25), PTH, and ionized calcium from baseline to 1, 7, 8, 14, 21, and 35 • Type and incidence of AEs • Serious or severe hypersensitivity reaction starting on or after the first dose of randomized treatment (i.e. treatment emergent). The hypersensitivity terms were defined as standardised Medical Dictionary for Regulatory Activities query (SMQ) terms. […]
The following safety laboratory assessments were analysed: • S-phosphate: inorganic phosphorous forms an ammonium phosphomolybdate complex having the formula (NH4)3[PO4](MoO3)12 with ammonium molybdate in the presence of sulfuric acid. The complex was determined photometrically in the ultraviolet region (340 nm) of the spectrum using the Roche Modular and Cobas Analyzer. • iFGF23 and cFGF23: the human intact FGF23 was measured by the 2nd generation Elisa kit manufactured by Immonotropics, Inc, San Clemente, CA. […] The human C-terminal FGF23 was measured by the Elisa kit manufactured by Immonotropics, Inc, San Clemente, CA. […] After evaporation under nitrogen, the residue was reconstituted and analyzed using Liquid Chromatography (LC) with Tandem Mass Spectrometric detection (MS/MS). […] A direct relationship exists between the amount of PTH present in the patient sample and the amount of relative light units (RLUs) detected by the system. • Ionized calcium: Measured by the IL GEM Premier 3500 PAK cartridge. […]

human C-terminal FGF23 = assay: C-terminal FGF23 (cFGF23) over time, two-site ELISA, trials IDA-04/IDA-05; type: in vivo
Experimental: as §1
(§2) The following safety laboratory assessments were analysed: • S-phosphate: inorganic phosphorous forms an ammonium phosphomolybdate complex having the formula (NH4)3[PO4](MoO3)12 with ammonium molybdate in the presence of sulfuric acid. The complex was determined photometrically in the ultraviolet region (340 nm) of the spectrum using the Roche Modular and Cobas Analyzer. • iFGF23 and cFGF23: the human intact FGF23 was measured by the 2nd generation Elisa kit manufactured by Immonotropics, Inc, San Clemente, CA. […] The human C-terminal FGF23 was measured by the Elisa kit manufactured by Immonotropics, Inc, San Clemente, CA. […] After evaporation under nitrogen, the residue was reconstituted and analyzed using Liquid Chromatography (LC) with Tandem Mass Spectrometric detection (MS/MS). […]

[2] = tested on: vitamin D (25, 1,25, 24,25); assay: Vitamin D (25, 1,25, 24,25) levels by LC-MS/MS, trials IDA-04/IDA-05; type: in vivo, human; settings: IDA-04 and IDA-05 combined
Experimental: The term “serum vitamin D” as used herein refers to the level of vitamin Ds, in particular 25-hydroxyvitamin D, 1,25-dihydroxyvitamin D, and 24,25-dihydroxyvitamin D, in blood serum as measured by Liquid Chromatography and Tandem Mass Spectrometry (LC-MS/MS).
The trial was a randomized, open-label, comparative trial. […]
as §2

- Fractional urinary excretion of phosphate [1]: significantly increased
- iFGF23 after administration (human intact FGF23; first administration (750 mg), then gradually declined over days): increased sharply
- increase in iFGF23 after second dose relative to first dose (human intact FGF23; repeated dosing one week apart): 2-3 fold
- iFGF23 on the second administration, relative to the initial level (human intact FGF23; second administration (750 mg, day 7)): several fold higher
- cFGF23 on the first administration (human C-terminal FGF23; initially high due to underlying iron deficiency anemia): dropped sharply
- cFGF23 on the second administration (human C-terminal FGF23; second administration (day 7)): increased
- 1,25-dihydroxyvitamin D [2]: decrease
- 24,25-dihydroxyvitamin D [2]: increase
Substance: ferric carboxymaltose [FCM]
